Laboratory results reported in patent publication US20140256830A1, “RESORCINOL COMPOUNDS FOR DERMATOLOGICAL USE” (Ampere Life Sciences, Inc., priority 2013, published 2014).

These compounds were tested on mushroom tyrosinase (Sigma T3824) (assay: Mushroom Tyrosinase Inhibition Assay). Details: 10 μM compound, 300 μM L-Tyrosine, 84 units/mL enzyme, pH 6.5, 15 min room temperature.
Assay type: biochemical
Description: 10 μM compound, 300 μM L-Tyrosine, and 84 units/mL of mushroom tyrosinase (Sigma T3824) were combined into 0.05 M potassium monophosphate buffer at pH=6.5, and incubated for 15 min at room temperature. Absorbance was recorded at 490 nm. % tyrosinase inhibition was calculated as follows: (AbsDMSO−Abscmpd)/AbsDMSO×100. The assay was performed for various compounds described herein, as well as for control compounds 4-ethyl resorcinol (4ER), 4-isopropylresorcinol (4IPR), 4-hexylresorcinol (4HR), 4-cyclohexylresorcinol (4CHR), 5-methylresorcinol (5MR), kojic acid (KA), and hydroquinone (HQ), structures of which are shown below.
`Cc1cc(O)cc(O)c1C(C)c1ccccc1` (stereo not drawn) [4,5PEMR, 4-(1-phenylethyl)-5-methylbenzene-1,3-diol] was tested, and the “Mushroom Tyrosinase (% remaining enzyme activity) % TYR Activity” value was 105%. In the case of `Cc1cc(O)cc(O)c1C1CCCC1` [4,5CPMR, 4-cyclopentyl-5-methylbenzene-1,3-diol], the “Mushroom Tyrosinase (% remaining enzyme activity) % TYR Activity” value is reported as 71%. With `Oc1cc(O)c(C2CCCCC2)c(F)c1` [4,5CHFR, 4-cyclohexyl-5-fluorobenzene-1,3-diol] the “Mushroom Tyrosinase (% remaining enzyme activity) % TYR Activity” value was 1%. With `Cc1cc(O)cc(O)c1C(C)C` [4,5IPMR, 4-isopropyl-5-methylbenzene-1,3-diol] the “Mushroom Tyrosinase (% remaining enzyme activity) % TYR Activity” value was 108%. `Oc1cc(O)c(C2CCCCC2)c(F)c1` [4,5EFR, 4-cyclohexyl-5-fluorobenzene-1,3-diol] was tested, and the “Mushroom Tyrosinase (% remaining enzyme activity) % TYR Activity” value was 3%. In the case of `Cc1cc(O)cc(O)c1Cc1ccccc1` [4,5BnMR, 4-benzyl-5-methylbenzene-1,3-diol], the “Mushroom Tyrosinase (% remaining enzyme activity) % TYR Activity” value is reported as 97%. With `Oc1ccc(O)cc1` [Hydroquinone, hydroquinone, reference compound] the “Mushroom Tyrosinase (% remaining enzyme activity) % TYR Activity” value was 100%. In the case of `CCCCCCc1ccc(O)cc1O` [Compound 4HR, 4-hexylresorcinol, reference compound], the “Mushroom Tyrosinase (% remaining enzyme activity) % TYR Activity” value is reported as 1%. With `Cc1cc(O)cc(O)c1CC(F)(F)F` [4,5TFEMR, 4-(2,2,2-trifluoroethyl)-5-methylbenzene-1,3-diol] the “Mushroom Tyrosinase (% remaining enzyme activity) % TYR Activity” value was 103%. With `Cc1cc(O)cc(O)c1C1CC1` [4,5CPrMR, 4-cyclopropyl-5-methylbenzene-1,3-diol] the “Mushroom Tyrosinase (% remaining enzyme activity) % TYR Activity” value was 30%. `Cc1cc(O)cc(O)c1` [Compound 5MR, 5-methylresorcinol, reference compound] was tested, and the “Mushroom Tyrosinase (% remaining enzyme activity) % TYR Activity” value was 100%. With `Cc1cc(O)cc(O)c1CC1CCCC1` [4,5MCPMR, 4-cyclopentylmethyl-5-methylbenzene-1,3-diol] the “Mushroom Tyrosinase (% remaining enzyme activity) % TYR Activity” value was 32%. For `CCc1c(C)cc(O)cc1O` [4,5EMR, 4-ethyl-5-methylbenzene-1,3-diol], the “Mushroom Tyrosinase (% remaining enzyme activity) % TYR Activity” value was 93%. `CC(C)c1ccc(O)cc1O` [Compound 4IPR, 4-isopropylresorcinol, reference compound] was tested, and the “Mushroom Tyrosinase (% remaining enzyme activity) % TYR Activity” value was 1%. With `CCC(C)c1c(C)cc(O)cc1O` (stereo not drawn) [4,5sBMR, 4-sec-butyl-5-methylbenzene-1,3-diol] the “Mushroom Tyrosinase (% remaining enzyme activity) % TYR Activity” value was 100%. With `CCc1ccc(O)cc1O` [Compound 4ER, 4-ethyl resorcinol, reference compound] the “Mushroom Tyrosinase (% remaining enzyme activity) % TYR Activity” value was 2%. In the case of `CCCCCCc1c(C)cc(O)cc1O` [4,5HMR, 4-hexyl-5-methylbenzene-1,3-diol], the “Mushroom Tyrosinase (% remaining enzyme activity) % TYR Activity” value is reported as 10%. With `Oc1ccc(C2CCCCC2)c(O)c1` [Compound 4CHR, 4-cyclohexylresorcinol, reference compound] the “Mushroom Tyrosinase (% remaining enzyme activity) % TYR Activity” value was 0%. In the case of `Cc1cc(O)cc(O)c1C1CCCCC1` [4,5CHMR, 4-cyclohexyl-5-methylbenzene-1,3-diol], the “Mushroom Tyrosinase (% remaining enzyme activity) % TYR Activity” value is reported as 22%. For `Oc1cc(O)c(Cc2ccccc2)c(C(F)(F)F)c1` [4,5BnTFMR, 2-Benzyl-1,5-dihydroxy-3-trifluoromethyl-benzene], the “Mushroom Tyrosinase (% remaining enzyme activity) % TYR Activity” value was 93%. `O=c1cc(CO)occ1O` [Kojic Acid, kojic acid, reference compound] was tested, and the “Mushroom Tyrosinase (% remaining enzyme activity) % TYR Activity” value was 84%. In the case of `Oc1cc(O)c(C2CCCCC2)c(C(F)(F)F)c1` [4,5CHTFMR], the “Mushroom Tyrosinase (% remaining enzyme activity) % TYR Activity” value is reported as 100%. With `CCc1c(O)cc(O)cc1C(F)(F)F` [4,5ETFMR, 2-Ethyl-1,5-dihydroxy-3-trifluoromethyl-benzene] the “Mushroom Tyrosinase (% remaining enzyme activity) % TYR Activity” value was 102%.

Each compound was assayed on human neonatal epidermal melanocytes (HEMn-DP) / HaCaT cells co-culture (assay: Melanocyte-HaCaT Co-Culture Assay). Details: 10 μM concentration, 72 h, corrected for viability (Calcein-AM).
Assay type: cell-based
Description: Darkly pigmented human neonatal epidermal melanocytes (HEMn-DP, Invitrogen) were grown in Medium 254 with HMGS-2 supplement and P/S at 37° C. and 5% CO2. HaCaT cells were grown in DMEM, 10% FBS, P/S at 37° C., 5% CO2. Co-culture was conducted in 50% melanocyte media+50% keratinocyte media (EpiLife with EDGS, P/S). Cells were plated in the co-culture media at 40K (HaCaT) and 30K (HEMn-DP) per well in a 24-well plate. After 24 h of incubation at 37° C. and 5% CO2, media was changed to M153 (MCDB153 Sigma M7403 with NaHCO3 pH to 7.1, 2 mM Tyrosine, 10 nM NDP-aMSH, 3 ng/mL bFGF, 2.8 ug/mL Hydrocortisone, 10 ug/mL Insulin, 10 ug/mL Transferrin, and P/S), treated with compound, and incubated for 72 h at 37° C. and 5% CO2. After measuring cellular viability with Calcein-AM (RFU Ex/Em=488/525 nm), cells were lysed at 1 h at 65° C. with 1N NaOH+10% DMSO. Absorbance of cleared lysate was measured at 405 nm and 660 nm. % melanin was calculated as follows: ((Abs405DMSO−Abs660DMSO)/CalceinDMSO)−(Abs405comp−Abs660comp)/Calceincomp))/(Abs405DMSO−Abs660DMSO)/CalceinDMSO×100. At 10 μM concentration, % cellular melanin was 42% in the presence of compound 4,5CHMR.
With `Cc1cc(O)cc(O)c1C1CCCCC1` [4,5CHMR, 4-cyclohexyl-5-methylbenzene-1,3-diol] the “% cellular melanin” value was 42%.
